Data published in patent US4942159A, “Cephem compounds, their production and use” (Takeda Chemical Industries, Ltd., priority 1987, dated 1990).
Values after ≈ are worked out from the molar mass of the structure shown. Values joined by “and” are separate entries in the source; they are usually repeats but may differ in a detail not shown here. Equal values may be shown once.

Experiments:
[1] = test system: Pseudomonas aeruginosa P 9; assay: MIC by agar dilution method (Trypticase soy agar), Pseudomonas aeruginosa P 9; assay type: cell-based; conditions: P9, (4) Pseudomonas aeruginosa P 9, 37° C. overnight
Protocol: (§1) The MIC of each test compound (the compounds obtained in Examples 1 and 2) was determined by the agar dilution method. Thus, 1.0 ml aliquots of serial dilutions of the test compound in water were poured into petri dishes, and 9.0 ml of Trypticase soy agar is added to each dish and stirred. A suspension (about 10^8 CFU/ml) of each test organism is smeared on each agar plate, which is then incubated at 37° C. overnight. The lowest concentration of the test compound which causes a complete growth inhibition of the test organism was determined and taken as the MIC (minimal inhibitory concentration) against the same organism.
(4) Pseudomonas aeruginosa P 9

[2] = test system: Proteus morganii IFO 3168; assay: MIC by agar dilution method (Trypticase soy agar), Proteus morganii IFO 3168; assay type: cell-based; conditions: Morganella morganii, IFO3168, (3) Proteus morganii IFO 3168, 37° C. overnight
Protocol: as §1
(3) Proteus morganii IFO 3168

[3] = test system: Staphylococcus aureus 308 A-1; assay: MIC by agar dilution method (Trypticase soy agar), Staphylococcus aureus 308 A-1; assay type: cell-based; conditions: 308A1, 37° C. overnight
Protocol: as §1
(1) Staphylococcus aureus 308 A-1

[4] = test system: Staphylococcus aureus 1840; assay: MIC by agar dilution method (Trypticase soy agar), Staphylococcus aureus 1840; assay type: cell-based; conditions: (2) Staphylococcus aureus 1840, 37° C. overnight
Protocol: as §1
(2) Staphylococcus aureus 1840

[5] = concentration levels in plasma upon rectal administration (suppository), by biological assay; assay type: in vivo, rat (Wistar; conditions: rectal suppository 50 mg/kg, fasted male Wistar rats
Protocol: Employing the compound (I) prepared in Example 1 mentioned below, the concentration levels in plasma (plasma levels of said compound) upon rectal administration were measured by the procedure described below.
Suppositories containing the product of Example 1 which were prepared according to Example 3 mentioned below were given (50 mg/kg in terms of said product) into the rectum of three male rats No. 1 to 3 (Wistar, body weight of 300 to 400 g) being fasted for 20 hours. The anuses were closed with an adhesive agent, and blood sample were taken from the tail veins after 0.5, 1, 2 and 4 hours to determine quantitatively the plasma levels of the product of Example 1 by means of the biological assay method. As the test microorganisms for the assay, Escherichia coli NIHJ and Proteus rettgeri ATCC 9250 were employed.
A 250 mg portion of finely divided 7β-[2-(5-amino-1,2,4-thiadiazol-3-yl)-(Z)-2-methoxyiminoacetamido]-3- [(6-aminoimidazo[1,2-b]pyridazinium-1-yl)methyl]-3-cephem-4-carboxylate and 4750 mg of Isocacao MO-5 (produced by Kao, Ltd. in Japan) were uniformly sitrred at 40° to 45° C. and cooled to 35° C. under stiring, followed by filling the mixture into a suppository container made of plastics and gradually cooling to obtain a suppository.

| Structure (SMILES) | MIC [1] [µg/mL] | MIC [2] [µg/mL] | MIC [3] [µg/mL] | MIC [4] [µg/mL] | Concentration levels in plasma, 0.5 hr ([5]; 0.5 hr, individual rats: No. 1, No. 2, No. 3, 30 min) | Concentration levels in plasma, 1 hr ([5]; 1 hr, individual rats: No. 1, No. 2, No. 3, 60 min) | Concentration levels in plasma, 2 hr ([5]; 2 hr, individual rats: No. 1, No. 2, No. 3, 120 min) | Concentration levels in plasma, 4 hr ([5]; 4 hr, individual rats: b116 = No. 1, b117 = No. 2 (No. 3 not tested), 240 min) [ng/mL] | concentration at 4 h ([5]; rat, plasma, 50 mg/kg, 4 hr, individual rats: b116 = No. 1, b117 = No. 2 (No. 3 not tested)) [ng/mL] |
| --- | --- | --- | --- | --- | --- | --- | --- | --- | --- |
| CO/N=C(\C(=O)N[C@@H]1C(=O)N2C(C(=O)[O-])=C(C[n+]3ccn4nc(N)ccc43)CS[C@H]12)c1nsc(N)n1 [Example 1, 7β-[2-(5-amino-1,2,4-thiadiazol-3-yl)-(Z)-2-methoxyiminoacetamide]-3-[(6-aminoimidazo[1,2-b]pyridazinium-1-yl)methyl]-3-cephem-4-carboxylate] | 0.39 (≈ 0.735 µM) | 0.2 (≈ 0.377 µM) | 0.39 (≈ 0.735 µM) | 0.78 (≈ 1.47 µM) | 130 ng/mL and 2400 ng/mL and 5700 ng/mL | 740 ng/mL and 4200 ng/mL and 5900 ng/mL | 1700 ng/mL and 4600 ng/mL and 2700 ng/mL | 2800 | 4300 |
| CCO/N=C(\C(=O)N[C@@H]1C(=O)N2C(C(=O)[O-])=C(C[n+]3ccn4nc(N)ccc43)CS[C@H]12)c1nsc(N)n1 [Example 2, 7β-[2-(5-amino-1,2,4-thiadiazol-3-yl)-(Z)-2-ethoxyiminoacetamido]-3-[(6-aminoimidazo[1,2-b]pyridazinium-1-yl)methyl]-3-cephem-4-carboxylate] | 0.78 (≈ 1.43 µM) | 0.39 (≈ 0.716 µM) | 0.39 (≈ 0.716 µM) | 0.78 (≈ 1.43 µM) | – | – | – | – | – |
